Data as given in patent publication US11213506B2, “Combination therapy for the treatment or prevention of tumours” (QBIOTICS PTY LTD, priority 2017, dated 2022).

Assays:
[1] = system: A431 cells; assay: ATP release assay; format: cell-based, human; conditions: both concentrations (500 and 300 μM), within 60 minutes
Experimental: (§1) A431 (human epidermoid carcinoma), MM649 (human melanoma) and B16-OVA (B16-F10 mouse melanoma cell line stably transfected with chicken ovalbumin) were cultured in RPMI-1640, 10% FCS (complete medium) at 37° C., 5% CO2 in a humidified incubator. BMDCs were cultured in R10 media (RPMI, 10% FCS, 2 mM glutamine, 50 μM beta-mercaptoethanol, Pen/Strep). All cell lines used in this study were confirmed as mycoplasma negative using MycoAlert (Lonza). STR profiling was also performed to confirm the identity of the human cell lines used.
(§2) Cell lines were plated at a density of 10,000 cells per well into clear 96-well plates (Corning, #3595; 100 μl of complete media) and the resultant plates incubated overnight as previously detailed. The following day, media was aspirated from each well and 50 μl of fresh medium was inserted. Stock solutions of Compounds 1, 2, 3 and 4 were diluted to 2× final assay concentration (1 mM and 600 μM) and 50 μl of these dilutions added to the required wells. Ethanol only control solutions were also compiled and administered. At the indicated timepoints, 80 μl of media was removed, centrifuged at 1,200 rpm for 4 mins to pellet cell debris and 50 μl assayed for ATP using a bioluminescence based ATP assay kit (FLAA, Sigma-Aldrich). Relative luminescence units were recorded for each sample using a Hybrid Synergy H4 plate reader (BioTek).

[2] = system: MM649 cells; assay: ATP release assay; format: cell-based, human; conditions: both concentrations (500 and 300 μM), within 60 minutes
Experimental: as §1, §2

[3] = system: A431 cells; assay: HMGB1 release assay (ELISA); format: cell-based, human; conditions: within 120 minutes
Experimental: as §1
(§3) Cell lines (A431, MM649 and B16-OVA) were plated into T75 cm^2 flasks (Nunc) in 10 ml of complete media and cultured at 37° C., 5% CO2 until they reached 90% confluency. Compounds 1, 2, 3 and 4 were diluted in 5 ml of identical media to a final concentration of 500 and 300 μM and then administered to the cells. Several flasks were prepared such that a kinetic curve of HMGB1 release in response to drug treatment could be established. Ethanol only controls were also generated. At the required timepoint, media was removed from the flask into a 10 ml polypropylene tube that was placed on ice for 5 mins. […] OD450 nm values were determined using a Hybrid Synergy H4 plate reader (BioTek). Absorbance values from drug treated samples were normalized to vehicle treated samples to determine the fold increase in HMGB1 release in response to epoxytigliane treatment.

[4] = system: MM649 cells; assay: HMGB1 release assay (ELISA); format: cell-based, human; conditions: within 120 minutes
Experimental: as §1, §3

[5] = system: B16-OVA cells; assay: HMGB1 release assay (ELISA); format: cell-based, mouse; conditions: 120 minutes
Experimental: as §1, §3

[6] = system: CD11c+ BMDCs with B16-OVA cells; assay: BMDC uptake of epoxytigliane treated B16-OVA cells; format: cell-based, C57Bl/6 mice
Experimental: The tibias and […] from four 7-8 week old C57Bl/6 mice were first surgically removed under sterile conditions. The marrow was flushed from the bone cavity with 10 ml of ice cold R10 media (using a 27G needle/syringe into a 50 ml polypropylene tube). Cells were pelleted at 1,500 rpm for 5 mins and washed ×2 with ice cold R10 media. After resuspension of the pellet into 10 ml of ice cold R10 medium, cells were counted using an improved haemocytometer and plated at a density of 2×10^6 cells per plate (petri dish) in 10 ml of R10 supplemented with 20 ng/ml murine GM-CSF. All plates were incubated at 37° C., 5% CO2 and at day 3 an additional 10 ml R10 with 20 ng/ml GM-CSF was added. Cells were again fed at day 6 and used for downstream assays on day 7.
Prior to co-incubation with BMDCs, B16-OVA cells were trypsinised, centrifuged at 1,200 rpm for 4 mins to pellet cells and washed ×2 with complete medium. Cells were then stained with 2 μM Cell Tracker Green in complete medium for 45 mins, after which they were pelleted and washed ×2 as above. Labelled B16-OVA cells were subsequently treated with Compounds 1, 2, 3 and 4 at two concentrations (500 or 300 μM) in media at a density of 1×10^6 cells/ml for 30 and 60 mins, after which cells were pelleted via centrifugation, supernatant removed via aspiration and the cell pellet washed ×1 with complete media. After the wash, the treated cells were resuspended in R10 media, inserted into the wells of a 6-well plate (Corning, #3471. Ultra low attachment surface) and BMDCs added. Co-cultures were incubated for 4 h after which cell suspensions were transferred to a microfuge tube and centrifuged at 1,500 rpm for 5 mins. Pellets were resuspended in 100 μl FACs buffer containing anti-CD11c-APC and incubated for 10 mins at 4° C. Cells were again pelleted, washed ×1 with FACs buffer and then fixed using PBS, 1% formaldehyde for 10 mins. After centrifugation and removal of the supernatant, cells were resuspended in 500 μl FACs buffer in preparation for flow cytometry.
Samples were first gated by FSC-H v FSC-A, then SSC-H v SS-A to identify single cells. The proportion of CD11c^+ cells (Ex: 640 nm, Em: 670/14) with CMFDAmid (Ex: 488 nm, Em: 530/30) were then determined for treated and untreated cells as a percentage of all CD11c^+ cells.

Structure (SMILES): C/C=C(\C)C(=O)O[C@@H]1[C@@H](C)[C@@]2(O)[C@H]([C@@H]3C(C)(C)[C@]13OC(=O)[C@@H](C)CC)[C@@H]1O[C@]1(CO)[C@@H](O)[C@]1(O)C(=O)C(C)=C[C@H]12 [Compound 1, 12-tigloyl-13-(2-methylbutanoyl)-6,7-epoxy-4,5,9,12,13,20-hexahydroxy-1-tiglien-3-one]
- ATP release [1]: significant release of ATP
- ATP release [2]: significant release of ATP
- increase in HMBG1 release, normalised to vehicle treated cells [3]: up to 40%
- increase in HMBG1 release, normalised to vehicle treated cells [4]: up to 40%
- fold increase in HMBG1 release, normalised to vehicle treated cells [5]: greater than 3 fold
- dependence of antigen uptake on concentration and treatment time ([6]; 500 μM compared to the use of 300 μM): antigen uptake occurs to a greater extent after a shorter treatment time
- uptake of dying cancer cell fragments by CD11c+ dendritic cells/macrophages (BMDCs) ([6]; B16-OVA treated at 500 or 300 μM for 30 and 60 mins, 4 h co-culture): promotes the uptake
